# Measurements taken from paper PMC10893631, “Receptor-based pharmacophore modeling, molecular docking, synthesis and biological evaluation of novel VEGFR-2, FGFR-1, and BRAF multi-kinase inhibitors” (BMC Chemistry, 2024).
# Experiments:
# Test in all cases: NCI SRB growth inhibition (single dose 10 µM / five-dose)
# Type in all cases: cell-based, human
# HT29 = conditions: Homo sapiens, HT-29; for inhibition at 10 µM: HT29 (Colon cancer), read-out: GI%
# Outline: (§1)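 Three dose–response parameters were calculated per compound, among them TGI, defined at Ti = Tz. Percentage growth came from SRB absorbance normalised to time-zero and control wells, with negative values indicating cell kill below Tz.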
# HCC-2998 = conditions: Homo sapiens; for inhibition at 10 µM: HCC-2998 (Colon cancer), read-out: GI%
# Outline: as §1
# HL-60(TB) = conditions: Homo sapiens; for inhibition at 10 µM: HL-60(TB) (Leukemia), read-out: GI%
# Outline: as §1
# A549/ATCC = conditions: Homo sapiens; for inhibition at 10 µM: A549/ATCC (Non-small cell lung cancer), read-out: GI%
# Outline: as §1
# OVCAR-5 = conditions: Homo sapiens; for inhibition at 10 µM: OVCAR-5 (Ovarian cancer), read-out: GI%
# Outline: as §1
# SF-268 = conditions: Homo sapiens; for inhibition at 10 µM: SF-268 (CNS cancer), read-out: GI%
# Outline: as §1
# CAKI-1 = conditions: Homo sapiens; for inhibition at 10 µM: CAKI-1 (Renal cancer), read-out: GI%
# Outline: as §1
# MCF7 = conditions: Homo sapiens; for inhibition at 10 µM: MCF7 (Breast cancer), read-out: GI%
# Outline: as §1
# OVCAR-8 = conditions: Homo sapiens; for inhibition at 10 µM: OVCAR-8 (Ovarian cancer), read-out: GI%
# Outline: as §1
# SK-MEL-2 = conditions: Homo sapiens; SK-MEL-2 (Melanoma), 10 µM; read-out: GI%
# Outline: as §1
# NCI-H23 = conditions: Homo sapiens; for inhibition at 10 µM: NCI-H23 (Non-small cell lung cancer), read-out: GI%
# Outline: as §1
# HS 578 T = conditions: Homo sapiens; for inhibition at 10 µM: HS 578 T (Breast cancer), read-out: GI%
# Outline: as §1
# MDA-MB-231/ATCC = conditions: Homo sapiens; for inhibition at 10 µM: MDA-MB-231/ATCC (Breast cancer), read-out: GI%
# Outline: as §1
# A498 = conditions: Homo sapiens; for inhibition at 10 µM: A498 (Renal cancer), read-out: GI%
# Outline: as §1
# PC-3 = conditions: Homo sapiens; for inhibition at 10 µM: PC-3 (Prostate cancer), read-out: GI%
# Outline: as §1
# MOLT-4 = conditions: Homo sapiens; for inhibition at 10 µM: MOLT-4 (Leukemia), read-out: GI%
# Outline: as §1
# HOP-62 = conditions: Homo sapiens; for inhibition at 10 µM: HOP-62 (Non-small cell lung cancer), read-out: GI%
# Outline: as §1
# CCRF-CEM = conditions: Homo sapiens; for inhibition at 10 µM: CCRF-CEM (Leukemia), read-out: GI%
# Outline: as §1
# NCI-H322M = conditions: Homo sapiens; for inhibition at 10 µM: NCI-H322M (Non-small cell lung cancer), read-out: GI%
# Outline: as §1
# BT-549 = conditions: Homo sapiens; for inhibition at 10 µM: BT-549 (Breast cancer), read-out: GI%
# Outline: as §1
# HCT-15 = conditions: Homo sapiens; for inhibition at 10 µM: HCT-15 (Colon cancer), read-out: GI%
# Outline: as §1
# SNB-19 = conditions: Homo sapiens; for inhibition at 10 µM: SNB-19 (CNS cancer), read-out: GI%
# Outline: as §1
# LOX IMVI = conditions: Homo sapiens; for inhibition at 10 µM: LOX IMVI (Melanoma), read-out: GI%
# Outline: as §1
# SR = conditions: Homo sapiens; for inhibition at 10 µM: SR (Leukemia), read-out: GI%
# Outline: as §1
# UACC-257 = conditions: Homo sapiens; for inhibition at 10 µM: UACC-257 (Melanoma), read-out: GI%
# Outline: as §1
# ACHN = conditions: Homo sapiens; for inhibition at 10 µM: ACHN (Renal cancer), read-out: GI%
# Outline: as §1
smiles,measurement,setting,value
"COc1cccc(C=NNC(=O)c2ccc3[nH]c(-c4ccc(Cl)cc4)nc3c2)c1O [8r, 2-(4-Chlorophenyl)-N'-(2-hydroxy-3-methoxybenzylidene)-1H-benzo[d]imidazole-5-carbohydrazide]",inhibition at 10 µM,HT29,> 100%
same,GI50,"HT29; HT29, Colon cancer, five-dose",4.17 µM
same,inhibition at 10 µM,HCC-2998,> 100%
same,GI50,"HCC-2998; HCC-2998, Colon cancer, five-dose",1.48 µM
same,inhibition at 10 µM,HL-60(TB),> 100%
same,GI50,"HL-60(TB); HL-60(TB), Leukemia, five-dose",1.95 µM
same,inhibition at 10 µM,A549/ATCC,> 100%
same,GI50,"A549/ATCC; A549/ATCC, Non-small cell lung cancer, five-dose",3.68 µM
same,inhibition at 10 µM,OVCAR-5,> 100%
same,GI50,"OVCAR-5; OVCAR-5, Ovarian cancer, five-dose",2.17 µM
same,inhibition at 10 µM,SF-268,> 100%
same,GI50,"SF-268; SF-268, CNS cancer, five-dose",1.21 µM
same,inhibition at 10 µM,CAKI-1,> 100%
same,GI50,"CAKI-1; CAKI-1, Renal cancer, five-dose",2.31 µM
same,inhibition at 10 µM,MCF7,> 100%
same,GI50,"MCF7; MCF7, Breast cancer, five-dose",0.66 µM
same,inhibition at 10 µM,OVCAR-8,> 100%
same,GI50,"OVCAR-8; OVCAR-8, Ovarian cancer, five-dose",1.58 µM
same,inhibition at 10 µM,SK-MEL-2,> 100%
same,inhibition at 10 µM,NCI-H23,> 100%
same,GI50,"NCI-H23; NCI-H23, Non-small cell lung cancer, five-dose",1.15 µM
same,inhibition at 10 µM,HS 578 T,> 100%
same,GI50,"HS 578 T; HS 578 T, Breast cancer, five-dose",0.7 µM
same,inhibition at 10 µM,MDA-MB-231/ATCC,> 100%
same,GI50,"MDA-MB-231/ATCC; MDA-MB-231/ATCC, Breast cancer, five-dose",1.82 µM
same,inhibition at 10 µM,A498,> 100%
same,GI50,"A498; A498, Renal cancer, five-dose",12.1 µM
same,inhibition at 10 µM,PC-3,> 100%
same,GI50,"PC-3; PC-3, Prostate cancer, five-dose",1.62 µM
same,inhibition at 10 µM,MOLT-4,> 100%
same,GI50,"MOLT-4; MOLT-4, Leukemia, five-dose",0.63 µM
same,inhibition at 10 µM,HOP-62,> 100%
same,GI50,"HOP-62; HOP-62, Non-small cell lung cancer, five-dose",1.04 µM
same,inhibition at 10 µM,CCRF-CEM,> 100%
same,GI50,"CCRF-CEM; CCRF-CEM, Leukemia, five-dose",0.43 µM
same,inhibition at 10 µM,NCI-H322M,> 100%
same,GI50,"NCI-H322M; NCI-H322M, Non-small cell lung cancer, five-dose",1.59 µM
same,inhibition at 10 µM,BT-549,> 100%
same,GI50,"BT-549; BT-549, Breast cancer, five-dose",1.36 µM
same,inhibition at 10 µM,HCT-15,95.2%
same,GI50,"HCT-15; HCT-15, Colon cancer, five-dose",2.72 µM
same,inhibition at 10 µM,SNB-19,> 100%
same,GI50,"SNB-19; SNB-19, CNS cancer, five-dose",1.31 µM
same,inhibition at 10 µM,LOX IMVI,> 100%
same,GI50,"LOX IMVI; LOX IMVI, Melanoma, five-dose",1.18 µM
same,inhibition at 10 µM,SR,> 100%
same,GI50,"SR; SR, Leukemia, five-dose",0.5 µM
same,inhibition at 10 µM,UACC-257,> 100%
same,GI50,"UACC-257; UACC-257, Melanoma, five-dose",2.35 µM
same,inhibition at 10 µM,ACHN,> 100%
same,GI50,"ACHN; ACHN, Renal cancer, five-dose",2.92 µM
"COc1ccc(C=NNC(=O)c2ccc3[nH]c(-c4ccccc4)nc3c2)cc1O [8e, N'-(3-Hydroxy-4-methoxybenzylidene)-2-phenyl-1H-benzo[d]imidazole-5-carbohydrazide]",inhibition at 10 µM,HT29,95.8%
same,inhibition at 10 µM,HCC-2998,< 5%
same,inhibition at 10 µM,HL-60(TB),24.7%
same,inhibition at 10 µM,A549/ATCC,< 5%
same,inhibition at 10 µM,OVCAR-5,< 5%
same,inhibition at 10 µM,SF-268,16%
same,inhibition at 10 µM,CAKI-1,17.6%
same,inhibition at 10 µM,MCF7,70.5%
same,inhibition at 10 µM,OVCAR-8,25.2%
same,inhibition at 10 µM,SK-MEL-2,8.51%
same,inhibition at 10 µM,NCI-H23,< 5%
same,inhibition at 10 µM,HS 578 T,6.89%
same,inhibition at 10 µM,MDA-MB-231/ATCC,< 5%
same,inhibition at 10 µM,A498,< 5%
same,inhibition at 10 µM,PC-3,11.5%
same,inhibition at 10 µM,MOLT-4,36.1%
same,inhibition at 10 µM,HOP-62,21.4%
same,inhibition at 10 µM,CCRF-CEM,35.9%
same,inhibition at 10 µM,NCI-H322M,< 5%
same,inhibition at 10 µM,BT-549,< 5%
same,inhibition at 10 µM,HCT-15,< 5%
same,inhibition at 10 µM,SNB-19,< 5%
same,inhibition at 10 µM,LOX IMVI,< 5%
same,inhibition at 10 µM,SR,44.1%
same,inhibition at 10 µM,UACC-257,13.8%
same,inhibition at 10 µM,ACHN,< 5%
"COc1cccc(C=NNC(=O)c2ccc3[nH]c(-c4ccccc4)nc3c2)c1 [8c, N'-(3-Methoxybenzylidene)-2-phenyl-1H-benzo[d]imidazole-5-carbohydrazide]",inhibition at 10 µM,HT29,33.9%
same,inhibition at 10 µM,HCC-2998,< 5%
same,inhibition at 10 µM,HL-60(TB),38.1%
same,inhibition at 10 µM,A549/ATCC,20.1%
same,inhibition at 10 µM,OVCAR-5,< 5%
same,inhibition at 10 µM,SF-268,15.1%
same,inhibition at 10 µM,CAKI-1,10%
same,inhibition at 10 µM,MCF7,51%
same,inhibition at 10 µM,OVCAR-8,24.5%
same,inhibition at 10 µM,SK-MEL-2,19.5%
same,inhibition at 10 µM,NCI-H23,9.68%
same,inhibition at 10 µM,HS 578 T,20%
same,inhibition at 10 µM,MDA-MB-231/ATCC,< 5%
same,inhibition at 10 µM,A498,< 5%
same,inhibition at 10 µM,PC-3,24.6%
same,inhibition at 10 µM,MOLT-4,35.4%
same,inhibition at 10 µM,HOP-62,15.4%
same,inhibition at 10 µM,CCRF-CEM,44.5%
same,inhibition at 10 µM,NCI-H322M,6.09%
same,inhibition at 10 µM,BT-549,< 5%
same,inhibition at 10 µM,HCT-15,27.5%
same,inhibition at 10 µM,SNB-19,< 5%
same,inhibition at 10 µM,LOX IMVI,< 5%
same,inhibition at 10 µM,SR,36.3%
same,inhibition at 10 µM,UACC-257,14.6%
same,inhibition at 10 µM,ACHN,< 5%
